According to patent US11312712B2, “Azabenzimidazoles and their use as AMPA receptor modulators” (Janssen Pharmaceutica NV, priority 2015, dated 2022):
pIC50: −log10 of the molar value.

Each compound was assayed against GluA1o-γ8 (GRIA1o-CACNG8 fusion construct) (Homo sapiens (Human), UniProt P42261+Q8WXS5) (assay: Calcium flux assay (FLIPR), inhibition of TARP γ8 dependent AMPA receptor activity). Conditions: GluA1o-γ8 (GRIA1o-CACNG8 fusion) in HEK293 cells, calcium flux after 15 μM glutamate.
Format: cell-based
Summary of the method: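 Glutamate (15 μM) was added to a stable HEK293 line carrying the GluA1o–γ8 fusion, which had been preincubated with compound and calcium dye in HEPES buffer, pH 7.4. Normalized FLIPR fluorescence (no compound vs 10 μM CP465022) was fitted with four parameters; pIC50 is the midpoint's negative log.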

Sequence of GluA1o-γ8 (GRIA1o-CACNG8 fusion construct) (P42261 other isoform, or with tags, fused parts or gaps): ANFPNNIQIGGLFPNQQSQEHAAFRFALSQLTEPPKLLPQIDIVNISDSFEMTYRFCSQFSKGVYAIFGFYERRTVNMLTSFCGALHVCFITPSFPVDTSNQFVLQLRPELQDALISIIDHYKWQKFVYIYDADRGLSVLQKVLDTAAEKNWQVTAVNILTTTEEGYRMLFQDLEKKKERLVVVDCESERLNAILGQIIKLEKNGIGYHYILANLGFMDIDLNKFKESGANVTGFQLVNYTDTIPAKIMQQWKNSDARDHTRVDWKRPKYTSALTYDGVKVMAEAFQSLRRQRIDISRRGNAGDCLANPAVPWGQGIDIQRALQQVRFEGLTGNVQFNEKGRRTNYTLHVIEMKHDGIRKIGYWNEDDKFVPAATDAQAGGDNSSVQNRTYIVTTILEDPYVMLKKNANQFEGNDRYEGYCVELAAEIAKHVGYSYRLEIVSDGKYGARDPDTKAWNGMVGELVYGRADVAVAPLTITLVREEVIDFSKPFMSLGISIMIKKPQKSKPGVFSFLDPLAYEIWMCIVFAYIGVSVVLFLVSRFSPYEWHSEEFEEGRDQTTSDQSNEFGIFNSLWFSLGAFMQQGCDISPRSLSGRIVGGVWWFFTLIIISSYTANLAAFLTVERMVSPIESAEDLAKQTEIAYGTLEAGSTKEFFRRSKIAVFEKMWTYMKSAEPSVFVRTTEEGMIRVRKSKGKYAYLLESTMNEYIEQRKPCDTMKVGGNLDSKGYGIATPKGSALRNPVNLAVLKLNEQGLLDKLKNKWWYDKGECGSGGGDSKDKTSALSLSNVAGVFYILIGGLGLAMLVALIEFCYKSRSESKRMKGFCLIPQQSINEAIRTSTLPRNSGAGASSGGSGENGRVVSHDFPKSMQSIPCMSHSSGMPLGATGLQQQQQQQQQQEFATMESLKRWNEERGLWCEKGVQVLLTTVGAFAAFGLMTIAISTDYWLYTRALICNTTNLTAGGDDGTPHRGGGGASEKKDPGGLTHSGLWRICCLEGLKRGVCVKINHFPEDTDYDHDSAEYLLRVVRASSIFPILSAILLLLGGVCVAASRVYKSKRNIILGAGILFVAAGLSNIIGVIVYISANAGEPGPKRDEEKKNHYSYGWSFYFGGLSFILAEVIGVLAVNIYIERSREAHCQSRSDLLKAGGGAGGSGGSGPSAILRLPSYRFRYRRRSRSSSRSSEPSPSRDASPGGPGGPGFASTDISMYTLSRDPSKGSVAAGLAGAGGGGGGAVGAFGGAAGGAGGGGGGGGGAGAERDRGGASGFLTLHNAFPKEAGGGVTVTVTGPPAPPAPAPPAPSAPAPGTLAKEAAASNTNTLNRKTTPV

Structure (SMILES)	pIC50
Cc1cc(-n2c(C(F)(F)F)nc3ccc(/C=C/CO)nc32)cc2cn[nH]c12 [Example 222, (E)-3-(3-(7-Methyl-1H-indazol-5-yl)-2-(trifluoromethyl)-3H-imidazo[4,5-b]pyridin-5-yl)prop-2-en-1-ol]	7.50
Cc1cc(-n2c(C(F)(F)F)nc3ccc(CCCO)nc32)cc2cn[nH]c12 [Example 223, 3-(3-(7-Methyl-1H-indazol-5-yl)-2-(trifluoromethyl)-3H-imidazo[4,5-b]pyridin-5-yl)propan-1-ol]	7.00
CCCc1ccc2nc(C(F)(F)F)n(-c3cc(C)c4[nH]ncc4c3)c2n1 [Example 224, 3-(7-Methyl-1H-indazol-5-yl)-5-propyl-2-(trifluoromethyl)-3H-imidazo[4,5-b]pyridine]	9.80
FC(F)c1ccc2nc(C3CC3)n(-c3cc(Cl)c4[nH]ncc4c3)c2n1 [Example 227, 3-(7-Chloro-1H-indazol-5-yl)-2-cyclopropyl-5-(difluoromethyl)imidazo[4,5-b]pyridine]	10.30
Cc1cc(-n2c(-c3ccc(F)cc3)nc3ccc(C(F)F)nc32)cc2cn[nH]c12 [Example 228, 5-(Difluoromethyl)-2-(4-fluorophenyl)-3-(7-methyl-1H-indazol-5-yl)imidazo[4,5-b]pyridine]	10.80
Fc1ccc(-c2nc3ccc(C(F)F)nc3n2-c2cc(Cl)c3[nH]ncc3c2)cc1 [Example 229, 3-(7-Chloro-1H-indazol-5-yl)-5-(difluoromethyl)-2-(4-fluorophenyl)imidazo[4,5-b]pyridine]	11.20
O=c1[nH]c2ccc(-n3c(C(F)(F)F)nc4c(N5CCOCC5)cc(C(F)(F)F)nc43)cc2s1 [Example 230, 6-[7-Morpholino-2,5-bis(trifluoromethyl)imidazo[4,5-b]pyridin-3-yl]-3H-1,3-benzothiazol-2-one]	9.00
FC(F)(F)c1cc(N2CCOCC2)c2nc(C(F)(F)F)n(-c3ccc4[nH]ncc4c3)c2n1 [Example 231, 4-[3-(1H-Indazol-5-yl)-2,5-bis(trifluoromethyl)imidazo[4,5-b]pyridin-7-yl]morpholine]	8.40
FC(F)c1ccc2nc(C(F)(F)F)n(-c3ccc4[nH]ncc4c3)c2n1 [Example 238, 5-(Difluoromethyl)-3-(1H-indazol-5-yl)-2-(trifluoromethyl)imidazo[4,5-b]pyridine]	9.40
FC(F)(F)c1ccc2nc([C@H]3C[C@@H](F)C3)n(-c3cc(Cl)c4[nH]ncc4c3)c2n1 [Example 248, 3-(7-Chloro-1H-indazol-5-yl)-2-(3-fluorocyclobutyl)-5-(trifluoromethyl)imidazo[4,5-b]pyridine]	9.80
Cc1ccc2nc([C@H]3C[C@H](F)C3)n(-c3cc(Cl)c4[nH]ncc4c3)c2n1 [Example 249, 3-(7-Chloro-1H-indazol-5-yl)-2-(3-fluorocyclobutyl)-5-methyl-imidazo[4,5-b]pyridine]	9.30
FC(F)(F)c1ccc2nc([C@H]3C[C@H](F)C3)n(-c3cc(Cl)c4[nH]ncc4c3)c2n1 [Example 250, 3-(7-Chloro-1H-indazol-5-yl)-2-(3-fluorocyclobutyl)-5-(trifluoromethyl)imidazo[4,5-b]pyridine]	10.50

The remaining lines, values ahead:

pIC50	Structure (SMILES)
6.60	Oc1cc(-c2nc3ccc(C(F)(F)F)nc3n2-c2ccc3[nH]ncc3c2)ccn1 [Example 225, 4-[3-(1H-Indazol-5-yl)-5-(trifluoromethyl)imidazo[4,5-b]pyridin-2-yl]pyridin-2-ol]
6.40	FC(F)(F)c1ccc2ncn(-c3ccc4[nH]ncc4c3)c2n1 [Example 226, 3-(1H-Indazol-5-yl)-5-(trifluoromethyl)imidazo[4,5-b]pyridine]
7.80	CCC(F)(F)c1nc2ccc(C(F)(F)F)nc2n1-c1ccc2[nH]ncc2c1 [Example 232, 2-(1,1-Difluoropropyl)-3-(1H-indazol-5-yl)-5-(trifluoromethyl)imidazo[4,5-b]pyridine]
9.50	O=c1[nH]c2ccc(-n3c(C(F)(F)C(F)(F)F)nc4ccc(C(F)(F)F)nc43)cc2s1 [Example 233, 6-[2-(1,1,2,2,2-Pentafluoroethyl)-5-(trifluoromethyl)imidazo[4,5-b]pyridin-3-yl]-3H-1,3-benzothiazol-2-one]
10.10	O=c1[nH]c2ccc(-n3c(C(F)F)nc4ccc(C(F)(F)F)nc43)cc2s1 [Example 234, 6-[2-(Difluoromethyl)-5-(trifluoromethyl)imidazo[4,5-b]pyridin-3-yl]-3H-1,3-benzothiazol-2-one]
7.20	O=c1[nH]c2ccc(-n3c(C(F)F)nc4ccc(C(F)(F)F)nc43)cc2o1 [Example 235, 6-[2-(Difluoromethyl)-5-(trifluoromethyl)imidazo[4,5-b]pyridin-3-yl]-3H-1,3-benzoxazol-2-one]
8.20	O=c1[nH]c2ccc(-n3c(C(F)(F)F)nc4ccc(C(F)(F)F)nc43)cc2o1 [Example 236, 6-[2,5-Bis(trifluoromethyl)imidazo[4,5-b]pyridin-3-yl]-3H-1,3-benzoxazol-2-one]
8.60	Fc1n[nH]c2ccc(-n3c(C(F)(F)F)nc4ccc(C(F)(F)F)nc43)cc12 [Example 237, 3-(3-Fluoro-1H-indazol-5-yl)-2,5-bis(trifluoromethyl)imidazo[4,5-b]pyridine]
8.70	COc1nc2ccc(C(F)(F)F)nc2n1-c1ccc2[nH]c(=O)sc2c1 [Example 239, 6-[2-Methoxy-5-(trifluoromethyl)imidazo[4,5-b]pyridin-3-yl]-3H-1,3-benzothiazol-2-one]
9.00	CCOc1nc2ccc(C(F)(F)F)nc2n1-c1ccc2[nH]c(=O)sc2c1 [Example 240, 6-[2-Ethoxy-5-(trifluoromethyl)imidazo[4,5-b]pyridin-3-yl]-3H-1,3-benzothiazol-2-one]
9.40	COc1nc2ccc(C(F)(F)F)nc2n1-c1cc(C)c2[nH]ncc2c1 [Example 241, 2-Methoxy-3-(7-methyl-1H-indazol-5-yl)-5-(trifluoromethyl)imidazo[4,5-b]pyridine]
9.40	CCOc1nc2ccc(C(F)(F)F)nc2n1-c1cc(C)c2[nH]ncc2c1 [Example 242, 2-Ethoxy-3-(7-methyl-1H-indazol-5-yl)-5-(trifluoromethyl)imidazo[4,5-b]pyridine]
7.80	CCOc1nc2ccc(C(F)(F)F)nc2n1-c1ccc2c(c1)CC(=O)N2 [Example 243, 5-[2-Ethoxy-5-(trifluoromethyl)imidazo[4,5-b]pyridin-3-yl]indolin-2-one]
7.40	COc1nc2ccc(C(F)(F)F)nc2n1-c1ccc2c(c1)CC(=O)N2 [Example 244, 5-[2-Methoxy-5-(trifluoromethyl)imidazo[4,5-b]pyridin-3-yl]indolin-2-one]
6.50	CS(=O)(=O)Cc1nc2ccc(C(F)(F)F)nc2n1-c1ccc2[nH]ncc2c1 [Example 245, 3-(1H-indazol-5-yl)-2-(methylsulfonylmethyl)-5-(trifluoromethyl)imidazo[4,5-b]pyridine]
9.90	Cc1cc(-n2c3nc(C(F)(F)F)ccc3nc2[C@H]2C[C@@H](F)C2)cc2cn[nH]c12 [Example 246, 2-(3-Fluorocyclobutyl)-3-(7-methyl-1H-indazol-5-yl)-5-(trifluoromethyl)imidazo[4,5-b]pyridine]
10.20	Cc1cc(-n2c3nc(C(F)(F)F)ccc3nc2[C@H]2C[C@H](F)C2)cc2cn[nH]c12 [Example 247, 2-(3-Fluorocyclobutyl)-3-(7-methyl-1H-indazol-5-yl)-5-(trifluoromethyl)imidazo[4,5-b]pyridine]
